Measurements as given in ChEMBL document CHEMBL2429833, “A new class of bactericidal agents against S. aureus, MRSA and VRE derived from bisindolylmethane” (Med Chem Res, 2013).
Converted amounts (≈) assume the structure as drawn. The source made the active and inactive calls. No cut-off for these calls is given here.

Columns and labels:
HeLa = assay: Cytotoxicity against human HeLa cells after 48 hrs by MTT assay; format: functional, cell-based
Enterococcus faecalis [1] = assay: Bactericidal activity against vancomycin-resistant Enterococcus faecalis after 24 hrs; format: functional
Staphylococcus aureus [2] = assay: Antibacterial activity against Staphylococcus aureus ATCC 29213 after 24 hrs by microdilution method; format: functional; settings: ATCC 29213, 24 h
Staphylococcus aureus [3] = assay: Bactericidal activity against Staphylococcus aureus ATCC 29213 after 24 hrs; format: functional; settings: ATCC 29213, 24 h
Escherichia coli = assay: Antibacterial activity against Escherichia coli ATCC 25922 after 24 hrs by microdilution method; format: functional, organism-based
Staphylococcus aureus [4] = assay: Bactericidal activity against methicillin-resistant Staphylococcus aureus after 24 hrs; format: functional
A549 = assay: Cytotoxicity against human A549 cells after 48 hrs by MTT assay; format: functional, cell-based
Enterococcus faecalis [5] = assay: Antibacterial activity against vancomycin-resistant Enterococcus faecalis after 24 hrs by microdilution method; format: functional
Staphylococcus aureus [6] = assay: Antibacterial activity against methicillin-resistant Staphylococcus aureus after 24 hrs by microdilution method; format: functional
PC-3 = assay: Cytotoxicity against human PC3 cells after 48 hrs by MTT assay; format: functional, cell-based
Pseudomonas aeruginosa = assay: Antibacterial activity against Pseudomonas aeruginosa ATCC 27853 after 24 hrs by microdilution method; format: functional, organism-based

SMILES	IC50 (HeLa) [µM]	MBC (Enterococcus faecalis [1]) [µg/mL]	MIC (Staphylococcus aureus [2]) [µg/mL]	MBC (Staphylococcus aureus [3]) [µg/mL]	Activity (Escherichia coli)	MBC (Staphylococcus aureus [4]) [µg/mL]	IC50 (A549) [µM]	MIC (Enterococcus faecalis [5]) [µg/mL]	MIC (Staphylococcus aureus [6]) [µg/mL]	IC50 (PC-3) [µM]	Activity (Pseudomonas aeruginosa)
Fc1ccc(C(c2c[nH]c3ccc(Br)cc23)c2c[nH]c3ccc(Br)cc23)cc1	2.7	16 (≈ 32.1 µM)	1 (≈ 2.01 µM)	1 (≈ 2.01 µM)	inactive	1 (≈ 2.01 µM)	4.5	8 (≈ 16.1 µM)	1 (≈ 2.01 µM)	3.9	inactive
Cn1cc(C(c2ccc(F)cc2)c2cn(C)c3ccc(Br)cc23)c2cc(Br)ccc21	25.4	8 (≈ 15.2 µM)	4 (≈ 7.6 µM)	4 (≈ 7.6 µM)	–	8 (≈ 15.2 µM)	29.4	8 (≈ 15.2 µM)	8 (≈ 15.2 µM)	38.9	–
CCCCCCCCn1cc(C(c2ccc(F)cc2)c2cn(CCCCCCCC)c3ccc(Br)cc23)c2cc(Br)ccc21	32.4	–	> 128	–	–	–	38.7	> 128	> 128	44.9	–
